Assays:
Test in all cases: selective drug sensitivity score (sDSS, relative to normal bone marrow) (sDSS (score)); higher = more potent and effective on the cell line relative to normal bone marrow cells
Conditions in all cases: 72 h
380 = system: 380
ALL-PO = system: ALL-PO
ALL-SIL = system: ALL-SIL
CCRF-HSB2 = system: CCRF-HSB2
COG-LL-317 = system: COG-LL-317
COG-LL-394h = system: COG-LL-394h
COG-LL-402h = system: COG-LL-402h
HPB-ALL = system: HPB-ALL
KASUMI-2 = system: KASUMI-2
LC4-1 = system: LC4-1
MHH-CALL-2 = system: MHH-CALL-2
MOLT-16 = system: MOLT-16
MOLT-4 = system: MOLT-4
PF-382 = system: PF-382
RCH-ACV = system: RCH-ACV
REH = system: REH
SEM cells = system: SEM cells
SUP-B15 = system: SUP-B15
TANOUE = system: TANOUE
TMD5 = system: TMD5
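Further: ALL cell lines in 384-well plates, five doses spanning 10,000-fold, each plate scaled between vehicle and 100 µmol/L benzalkonium chloride controls, sDSS an adapted area-under-curve metric.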

CS(=O)(=O)CCNCc1ccc(-c2ccc3ncnc(Nc4ccc(OCc5cccc(F)c5)c(Cl)c4)c3c2)o1 [Lapatinib] (top concentration 1000 nM)
selective drug sensitivity score 380: 0
selective drug sensitivity score (ALL-PO): 0
selective drug sensitivity score (ALL-SIL): 0
selective drug sensitivity score (CCRF-HSB2): 0
selective drug sensitivity score (COG-LL-317): 0
selective drug sensitivity score (COG-LL-394h): 0
selective drug sensitivity score (COG-LL-402h): 0
selective drug sensitivity score (HPB-ALL): 0
selective drug sensitivity score (KASUMI-2): 0
selective drug sensitivity score (LC4-1): 0
selective drug sensitivity score (MHH-CALL-2): 12.1
selective drug sensitivity score (MOLT-16): 0
selective drug sensitivity score (MOLT-4): 0
selective drug sensitivity score (PF-382): 0
selective drug sensitivity score (RCH-ACV): 0
selective drug sensitivity score (REH): 0
selective drug sensitivity score (SEM cells): 0
selective drug sensitivity score (SUP-B15): 0
selective drug sensitivity score (TANOUE): 0
selective drug sensitivity score (TMD5): 0

CCn1cc(-c2ccnc3[nH]c(-c4cccc(CN(C)C)c4)cc23)c(-c2ccc(NC(=O)N(C)C)cc2)n1 (top concentration 1000 nM)
selective drug sensitivity score 380: 19
selective drug sensitivity score (ALL-PO): 13.2
selective drug sensitivity score (ALL-SIL): 21.3
selective drug sensitivity score (CCRF-HSB2): 15.5
selective drug sensitivity score (COG-LL-317): 18.7
selective drug sensitivity score (COG-LL-394h): 0.36
selective drug sensitivity score (COG-LL-402h): 17.8
selective drug sensitivity score (HPB-ALL): -0.44
selective drug sensitivity score (KASUMI-2): 17.7
selective drug sensitivity score (LC4-1): 23.4
selective drug sensitivity score (MHH-CALL-2): 6.66
selective drug sensitivity score (MOLT-16): 14.9
selective drug sensitivity score (MOLT-4): 13.1
selective drug sensitivity score (PF-382): 9.26
selective drug sensitivity score (RCH-ACV): 14
selective drug sensitivity score (REH): 19.3
selective drug sensitivity score (SEM cells): 17.9
selective drug sensitivity score (SUP-B15): 23.9
selective drug sensitivity score (TANOUE): -1.84
selective drug sensitivity score (TMD5): 13.5

COc1cc(NS(C)(=O)=O)ccc1Nc1c2ccccc2nc2ccccc12 [Amsacrine] (top concentration 10000 nM)
selective drug sensitivity score 380: 23.2
selective drug sensitivity score (ALL-PO): 5.66
selective drug sensitivity score (ALL-SIL): 10.2
selective drug sensitivity score (CCRF-HSB2): 22.5
selective drug sensitivity score (COG-LL-317): 25.8
selective drug sensitivity score (COG-LL-394h): 8.26
selective drug sensitivity score (COG-LL-402h): 16.8
selective drug sensitivity score (HPB-ALL): 2.56
selective drug sensitivity score (KASUMI-2): 21.7
selective drug sensitivity score (LC4-1): 15.5
selective drug sensitivity score (MHH-CALL-2): 10.5
selective drug sensitivity score (MOLT-16): 27.1
selective drug sensitivity score (MOLT-4): 21.3
selective drug sensitivity score (PF-382): 10.9
selective drug sensitivity score (RCH-ACV): 24.7
selective drug sensitivity score (REH): 19.1
selective drug sensitivity score (SEM cells): 12.8
selective drug sensitivity score (SUP-B15): 23.6
selective drug sensitivity score (TANOUE): -11.2
selective drug sensitivity score (TMD5): 3.86

CC(C)Cn1cnc2c(N)nc3ccccc3c21 [Imiquimod] (top concentration 2500 nM)
selective drug sensitivity score 380: 9
selective drug sensitivity score (ALL-PO): 0.4
selective drug sensitivity score (ALL-SIL): 0
selective drug sensitivity score (CCRF-HSB2): 0.4
selective drug sensitivity score (COG-LL-317): 0
selective drug sensitivity score (COG-LL-394h): 0.8
selective drug sensitivity score (COG-LL-402h): 0
selective drug sensitivity score (HPB-ALL): 2.6
selective drug sensitivity score (KASUMI-2): 1.5
selective drug sensitivity score (LC4-1): 0.3
selective drug sensitivity score (MHH-CALL-2): 1.7
selective drug sensitivity score (MOLT-16): 0.5
selective drug sensitivity score (MOLT-4): 0
selective drug sensitivity score (PF-382): 0
selective drug sensitivity score (RCH-ACV): 1.7
selective drug sensitivity score (REH): 5.1
selective drug sensitivity score (SEM cells): 0
selective drug sensitivity score (SUP-B15): 0.3
selective drug sensitivity score (TANOUE): 0.1
selective drug sensitivity score (TMD5): 4.4

CCc1cc2c(cc1N1CCC(N3CCOCC3)CC1)C(C)(C)c1[nH]c3cc(C#N)ccc3c1C2=O [Alectinib] (top concentration 1000 nM)
selective drug sensitivity score 380: 0.38
selective drug sensitivity score (ALL-PO): 7.28
selective drug sensitivity score (ALL-SIL): -0.22
selective drug sensitivity score (CCRF-HSB2): -0.22
selective drug sensitivity score (COG-LL-317): 5.48
selective drug sensitivity score (COG-LL-394h): 2.58
selective drug sensitivity score (COG-LL-402h): 1.48
selective drug sensitivity score (HPB-ALL): -0.22
selective drug sensitivity score (KASUMI-2): 1.08
selective drug sensitivity score (LC4-1): 3.18
selective drug sensitivity score (MHH-CALL-2): -0.12
selective drug sensitivity score (MOLT-16): -0.22
selective drug sensitivity score (MOLT-4): -0.22
selective drug sensitivity score (PF-382): -0.22
selective drug sensitivity score (RCH-ACV): 4.98
selective drug sensitivity score (REH): -0.02
selective drug sensitivity score (SEM cells): 0.58
selective drug sensitivity score (SUP-B15): -0.22
selective drug sensitivity score (TANOUE): -0.22
selective drug sensitivity score (TMD5): -0.22

C=CCc1cccc(/C=N/NC(=O)CN2CCN(Cc3ccccc3)CC2)c1O [PAC-1] (top concentration 10000 nM)
selective drug sensitivity score 380: 0.38
selective drug sensitivity score (ALL-PO): 0.98
selective drug sensitivity score (ALL-SIL): 3.18
selective drug sensitivity score (CCRF-HSB2): 1.78
selective drug sensitivity score (COG-LL-317): 12.7
selective drug sensitivity score (COG-LL-394h): 1.08
selective drug sensitivity score (COG-LL-402h): 4.98
selective drug sensitivity score (HPB-ALL): 0.98
selective drug sensitivity score (KASUMI-2): -0.72
selective drug sensitivity score (LC4-1): 0.18
selective drug sensitivity score (MHH-CALL-2): 5.58
selective drug sensitivity score (MOLT-16): 2.68
selective drug sensitivity score (MOLT-4): 2.58
selective drug sensitivity score (PF-382): 2.78
selective drug sensitivity score (RCH-ACV): 1.18
selective drug sensitivity score (REH): 3.48
selective drug sensitivity score (SEM cells): 2.98
selective drug sensitivity score (SUP-B15): 2.08
selective drug sensitivity score (TANOUE): 2.08
selective drug sensitivity score (TMD5): 0.98

C=C1C[C@@H]2CC[C@@]34C[C@H]5O[C@H]6[C@@H](O3)[C@H]3O[C@H](CC[C@@H]3O[C@H]6[C@H]5O4)CC(=O)C[C@@H]3[C@@H](OC)[C@@H](C[C@H](O)CN)O[C@H]3C[C@H]3O[C@@H](CC[C@@H]1O2)C[C@@H](C)C3=C [Eribulin] (top concentration 1000 nM)
selective drug sensitivity score 380: 24.2
selective drug sensitivity score (ALL-PO): 16.3
selective drug sensitivity score (ALL-SIL): 23.2
selective drug sensitivity score (CCRF-HSB2): 22.8
selective drug sensitivity score (COG-LL-317): 26.3
selective drug sensitivity score (COG-LL-394h): 6.7
selective drug sensitivity score (COG-LL-402h): 17.3
selective drug sensitivity score (HPB-ALL): 13.2
selective drug sensitivity score (KASUMI-2): 15.5
selective drug sensitivity score (LC4-1): 24
selective drug sensitivity score (MHH-CALL-2): 15.8
selective drug sensitivity score (MOLT-16): 28.6
selective drug sensitivity score (MOLT-4): 23.3
selective drug sensitivity score (PF-382): 15.1
selective drug sensitivity score (RCH-ACV): 25.4
selective drug sensitivity score (REH): 18.9
selective drug sensitivity score (SEM cells): 22.1
selective drug sensitivity score (SUP-B15): 25.7
selective drug sensitivity score (TANOUE): -8.6
selective drug sensitivity score (TMD5): 12.5

COC(=O)c1ccc([C@H]2c3[nH]c4ccccc4c3C[C@H](C(=O)OC)N2C(=O)CCl)cc1 [RSL3] (top concentration 10000 nM)
selective drug sensitivity score 380: 14.2
selective drug sensitivity score (ALL-PO): 0
selective drug sensitivity score (ALL-SIL): 0
selective drug sensitivity score (CCRF-HSB2): 0
selective drug sensitivity score (COG-LL-317): 0.3
selective drug sensitivity score (COG-LL-394h): 0
selective drug sensitivity score (COG-LL-402h): 0
selective drug sensitivity score (HPB-ALL): 0.4
selective drug sensitivity score (KASUMI-2): 0
selective drug sensitivity score (LC4-1): 0
selective drug sensitivity score (MHH-CALL-2): 0.1
selective drug sensitivity score (MOLT-16): 0
selective drug sensitivity score (MOLT-4): 0
selective drug sensitivity score (PF-382): 0.9
selective drug sensitivity score (RCH-ACV): 4.5
selective drug sensitivity score (REH): 3.1
selective drug sensitivity score (SEM cells): 0
selective drug sensitivity score (SUP-B15): 0
selective drug sensitivity score (TANOUE): 0
selective drug sensitivity score (TMD5): 0

O=C1c2c(O)ccc(O)c2C(=O)c2c(NCCNCCO)ccc(NCCNCCO)c21 [Mitoxantrone] (top concentration 1000 nM)
selective drug sensitivity score 380: 16.3
selective drug sensitivity score (ALL-PO): -0.06
selective drug sensitivity score (ALL-SIL): 7.44
selective drug sensitivity score (CCRF-HSB2): 14.2
selective drug sensitivity score (COG-LL-317): 16.2
selective drug sensitivity score (COG-LL-394h): 13.2
selective drug sensitivity score (COG-LL-402h): 15.8
selective drug sensitivity score (HPB-ALL): -3.06
selective drug sensitivity score (KASUMI-2): 12.3
selective drug sensitivity score (LC4-1): 6.74
selective drug sensitivity score (MHH-CALL-2): 7.34
selective drug sensitivity score (MOLT-16): 17
selective drug sensitivity score (MOLT-4): 8.34
selective drug sensitivity score (PF-382): -1.86
selective drug sensitivity score (RCH-ACV): 16.2
selective drug sensitivity score (REH): 12.6
selective drug sensitivity score (SEM cells): 8.04
selective drug sensitivity score (SUP-B15): 15.7
selective drug sensitivity score (TANOUE): -12.9
selective drug sensitivity score (TMD5): 4.54

From the supplement of paper PMC8967900
